Values quoted from earlier work in US5973156A, “Piperidine and tetrahydropyridine derivatives” (Merck Sharp & Dome Ltd., priority 1995, dated 1999).

Experiments:
[1] = system: human 5-HT1D.spsb.α and 5-HT1D.spsb.β receptor subtypes
[2] = humans, therapeutic doses

discrimination between the human 5-HT1D.spsb.α and 5-HT1D.spsb.β receptor subtypes [1]: barely discriminates
Structure (SMILES): CNS(=O)(=O)Cc1ccc2[nH]cc(CCN(C)C)c2c1 [sumatriptan]
adverse cardiovascular events [2]: certain adverse cardiovascular events
